According to ChEMBL document CHEMBL5725642, “Inhibitors of human immunodeficiency virus replication” (2018):
Several values for one entry are separate records, joined by “and”; a condition that tells them apart may be missing. Identical values can stand only once.

Test: Infectivity Assay: HIV cell culture assay¿MT-2 cells, 293T cells and the proviral DNA clone of NL4-3 virus were obtained from the NIH AIDS Research and Reference Reagent Program. MT-2 cells were propagated in RPMI 1640 media supplemented with 10% heat inactivated fetal bovine serum (FBS), 100 ug/ml penicillin G and up to 100 units/ml streptomycin. The 293T cells were propagated in DMEM media supplemented with 10% heat inactivated FBS, 100 ug/ml penicillin G and 100 ug/ml streptomycin. A recombinant NL4-3 proviral clone, in which a section of the nef gene was replaced with the Renilla luciferase gene, was used to make the reference virus used in these studies. The recombinant virus was prepared through transfection of the recombinant NL4-3 proviral clone into 293T cells using Transit-293 Transfection Reagent from Mirus Bio LLC (Madison, Wis.). Supernatent was harvested after 2-3 days after transfection, and the amount of virus present was titered in MT-2 cells using luciferase enzyme activity as a marker. Luciferase activity was quantitated using the EnduRen Live Cell Substrate from Promega (Madison, Wis.). Antiviral activities of compounds toward the recombinant virus were quantified by measuring luciferase activity in MT-2 cells infected for 4-5 days with the recombinant virus in the presence of serial dilutions of the compound.The 50% effective concentration (EC50) was calculated by using the exponential form of the median effect equation where (Fa)=1/[1+(ED50/drug conc.)m](Johnson V A, Byington R T. Infectivity Assay. In Techniques in HIV Research. ed. Aldovini A, Walker B D. 71-76. New York: Stockton Press. 1990).
Format: cell-based

| SMILES | EC50 |
| --- | --- |
| Cc1ccccc1S(=O)(=O)NC(=O)N[C@H](CCc1ccccc1)C(=O)N(C)c1ccc2c(c1)OCO2 | 55 µM |
| Cc1ccccc1S(=O)(=O)NC(=O)N[C@@H](CCc1ccccc1)C(=O)N(C)c1ccc2c(c1)OCO2 | 55 µM |
| CN(C(=O)[C@@H](Cc1ccccc1)NC(=O)NS(=O)(=O)c1ccccc1)c1ccc2c(c1)OCO2 | 55 µM |
| CN(C(=O)[C@H](Cc1ccccc1)NC(=O)NS(=O)(=O)c1ccccc1)c1ccc2c(c1)OCO2 | 0.55 µM |
| CN(C(=O)[C@H](Cc1ccccc1)NC(=O)NS(=O)(=O)c1ccccc1-c1cnn(C)c1)c1ccc2c(c1)OCO2 | 5.5 µM and 0.55 µM |
